{"source": "paper PMC8568920", "about": "“Serum apolipoprotein A-I potentiates the therapeutic efficacy of lysocin E against Staphylococcus aureus” (Nature Communications, 2021)", "key": {"MRSA": {"system": "MRSA", "assay": "microbe, parasite or virus in culture", "method": "(§1) The antimicrobial activities of the compounds were measured using the microdilution method. Measurement of the bactericidal activity of lysocin E (0.25 µg ml^−1) and nisin (2 µg ml^−1) with or without ApoA-I was performed according to the National Committee for Clinical Laboratory Standards method. […] For the ∆menA and ∆menB strains, TSB medium was used instead of cation-adjusted-Mueller Hinton broth (CA-MHB) in the microdilution method. Sera and ApoA-I, II were added to the bacterial culture before distributing them into 96-well plates. ApoA-I and ApoA-II antimicrobial activity were evaluated using the RN4220 strain. The protein binding rate of lysocin E against human plasma was determined by a rapid equilibrium dialysis device (Thermo Fisher Scientific, Waltham, MA, USA) according to the manufacturer’s instructions."}, "in vitro": {"assay": "in vitro", "conditions": "human plasma", "method": "as §1"}, "rhApoA-I ∆NM": {"biological_target": "T1, rhApoA-I ∆NM (Homo sapiens, UniProt P02647, DEL170-184)", "T1 construct": "1 65 146 160 185 243; made in house; host or cells: E. coli BL21(DE3)/pLysS, pET20b (pET-hApo∆NM)", "T1 sequence (P02647 with tags, fused parts or gaps DEL170-184)": "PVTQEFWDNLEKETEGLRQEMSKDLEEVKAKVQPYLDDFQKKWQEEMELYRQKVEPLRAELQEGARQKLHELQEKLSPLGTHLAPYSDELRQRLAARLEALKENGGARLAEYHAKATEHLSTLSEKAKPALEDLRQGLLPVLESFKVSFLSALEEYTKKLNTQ", "assay": "Bio-layer interferometry, binding to rhApoA-I ∆NM variant", "conditions": "BLI; biotinylated lysocin E on streptavidin biosensor; 2.5 µM protein", "method": "Bio-layer interferometry (BLI) measurements were performed on a BLItz system (ForteBio, Fremont, CA, USA) maintained at room temperature. Kinetic analyses were performed using BLItz Pro ver. 1.2.1.5 (ForteBio). The biotinylated ligand, diluted to 0.1 mg ml^−1 in BLItz buffer (0.05% [v/v] Tween-20 in PBS), was immobilised on a streptavidin biosensor and the kinetic analysis was performed by running BLItz buffer for 300 s each, in the presence and absence of analyte for association and dissociation, respectively. Biotinylated menaquinone (5) and biotinylated lysocin E derivatives (3 and 4) were synthesised as described in the Supplementary Information (Supplementary Figs. 7–15)."}, "[1]": {"system": "S. aureus (MRSA) MR6 (Clinical isolate)", "method": "as §1"}, "[2]": {"system": "S. aureus (MRSA) MR1 (Clinical isolate)", "method": "as §1"}, "[3]": {"system": "S. aureus (MRSA) MR5 (Clinical isolate)", "method": "as §1"}, "[4]": {"system": "Staphylococcus haemolyticus JCM2416", "method": "as §1"}, "S. aureus Newman": {"system": "S. aureus Newman", "method": "as §1"}, "[5]": {"system": "Staphylococcus pseudintermedius JCM17571", "method": "as §1"}, "S. aureus (MRSA) MRSA4": {"system": "S. aureus (MRSA) MRSA4", "method": "as §1"}, "[6]": {"system": "S. aureus Smith ATCC13709", "method": "as §1"}, "Bacillus cereus JCM20037": {"system": "Bacillus cereus JCM20037", "method": "as §1"}, "[7]": {"system": "Bacillus subtilis JCM2499", "method": "as §1"}, "[8]": {"system": "S. aureus (MRSA) MR4 (Clinical isolate)", "method": "as §1"}, "[9]": {"system": "S. aureus (MRSA) MR2 (Clinical isolate)", "method": "as §1"}, "[10]": {"system": "S. aureus (MRSA) JE2 (USA300)", "method": "as §1"}}, "note": "Where a SMILES comes first, the peptide text is derived from it. Bridges are numbered along the chain shown (N, C = ends). [ ]: non-standard residue; d: D form. The star is where a group is joined. Hexanoyl(3R-OH,5-Me) = CC(C)C[C@@H](O)CC(=O)*; dNMeF = CN[C@H](Cc1ccccc1)C(=O)O", "data": [{"smiles": "CC[C@H](C)[C@@H]1NC(=O)[C@@H](Cc2c[nH]c3ccccc23)NC(=O)[C@@H](CCC(N)=O)NC(=O)[C@H](CCC(=O)O)NC(=O)[C@@H](CCCNC(=N)N)NC(=O)[C@H](CC(C)C)NC(=O)[C@@H](Cc2ccccc2)N(C)C(=O)CNC(=O)[C@H](CO)NC(=O)[C@@H](CCCNC(=N)N)NC(=O)[C@@H](NC(=O)C[C@H](O)CC(C)C)[C@@H](C)OC(=O)[C@H]([C@@H](C)O)NC1=O", "note": "[Lysocin E, lysocin E] ({Hexanoyl(3R-OH,5-Me)}-T[dR]SG[dNMeF]L[dR]E[dQ][dW]IT; ester 1-C)", "values": [{"measurement": "Antimicrobial activity (MIC)", "setting": "MRSA", "result": 4, "unit": "µg/mL"}, {"measurement": "MIC in 10% bovine serum", "setting": "MRSA", "result": 0.063, "unit": "µg/mL"}, {"measurement": "fraction unbound", "setting": "in vitro", "result": "< 0.01"}, {"measurement": "Kd", "setting": "rhApoA-I ∆NM", "result": 5.6, "unit": "µM"}, {"measurement": "MIC of lysocin E, Serum 0% (A)", "setting": "[1]", "result": 4, "unit": "µg/mL"}, {"measurement": "MIC of lysocin E, Serum 10% (B)", "setting": "[1]", "result": 0.13, "unit": "µg/mL"}, {"measurement": "MIC of lysocin E, Serum 0% (A)", "setting": "[2]", "result": 4, "unit": "µg/mL"}, {"measurement": "MIC of lysocin E, Serum 10% (B)", "setting": "[2]", "result": 0.13, "unit": "µg/mL"}, {"measurement": "MIC of lysocin E, Serum 0% (A)", "setting": "[3]", "result": 4, "unit": "µg/mL"}, {"measurement": "MIC of lysocin E, Serum 10% (B)", "setting": "[3]", "result": 0.13, "unit": "µg/mL"}, {"measurement": "MIC of lysocin E, Serum 0% (A)", "setting": "[4]", "result": 2, "unit": "µg/mL"}, {"measurement": "MIC of lysocin E, Serum 10% (B)", "setting": "[4]", "result": 0.0078, "unit": "µg/mL"}, {"measurement": "MIC of lysocin E, Serum 0% (A)", "setting": "S. aureus Newman", "result": 4, "unit": "µg/mL"}, {"measurement": "MIC of lysocin E, Serum 10% (B)", "setting": "S. aureus Newman", "result": 0.13, "unit": "µg/mL"}, {"measurement": "MIC of lysocin E, Serum 0% (A)", "setting": "[5]", "result": 4, "unit": "µg/mL"}, {"measurement": "MIC of lysocin E, Serum 10% (B)", "setting": "[5]", "result": 0.13, "unit": "µg/mL"}, {"measurement": "MIC of lysocin E, Serum 0% (A)", "setting": "S. aureus (MRSA) MRSA4", "result": 4, "unit": "µg/mL"}, {"measurement": "MIC of lysocin E, Serum 10% (B)", "setting": "S. aureus (MRSA) MRSA4", "result": 0.25, "unit": "µg/mL"}, {"measurement": "MIC of lysocin E, Serum 0% (A)", "setting": "[6]", "result": 2, "unit": "µg/mL"}, {"measurement": "MIC of lysocin E, Serum 10% (B)", "setting": "[6]", "result": 0.063, "unit": "µg/mL"}, {"measurement": "MIC of lysocin E, Serum 0% (A)", "setting": "Bacillus cereus JCM20037", "result": 2, "unit": "µg/mL"}, {"measurement": "MIC of lysocin E, Serum 10% (B)", "setting": "Bacillus cereus JCM20037", "result": 0.50, "unit": "µg/mL"}, {"measurement": "MIC of lysocin E, Serum 0% (A)", "setting": "[7]", "result": 2, "unit": "µg/mL"}, {"measurement": "MIC of lysocin E, Serum 10% (B)", "setting": "[7]", "result": 0.25, "unit": "µg/mL"}, {"measurement": "MIC of lysocin E, Serum 0% (A)", "setting": "[8]", "result": 4, "unit": "µg/mL"}, {"measurement": "MIC of lysocin E, Serum 10% (B)", "setting": "[8]", "result": 0.13, "unit": "µg/mL"}, {"measurement": "MIC of lysocin E, Serum 0% (A)", "setting": "[9]", "result": 2, "unit": "µg/mL"}, {"measurement": "MIC of lysocin E, Serum 10% (B)", "setting": "[9]", "result": 0.13, "unit": "µg/mL"}, {"measurement": "MIC of lysocin E, Serum 0% (A)", "setting": "[10]", "result": 4, "unit": "µg/mL"}, {"measurement": "MIC of lysocin E, Serum 10% (B)", "setting": "[10]", "result": 0.13, "unit": "µg/mL"}]}]}
